Measurements as given in the supplement of paper PMC10307832.

How the values were obtained:
Assay in all cases: relative viability (nuclei count vs DMSO), 5 days (fraction); higher = more cells survive
Ponatinib + Foretinib = compound: Cc1ccc(C(=O)Nc2ccc(CN3CCN(C)CC3)c(C(F)(F)F)c2)cc1C#Cc1cnc2cccnn12 [Ponatinib] + COc1cc2c(Oc3ccc(NC(=O)C4(C(=O)Nc5ccc(F)cc5)CC4)cc3F)ccnc2cc1OCCCN1CCOCC1 [Foretinib] (partner 0.25 µM)
In short: (§1)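 Lung cancer cell lines were pin-tool dosed in 1536-well plates on the day after seeding, with either a lone drug or a fixed anchor-drug dose plus five library-drug doses (not always all listed) in √10 steps. Nuclei were counted on 4× images after 5 days. Relative viability is the ratio of treated-well to vehicle-well nuclei counts, with each value a median of duplicate plates.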

Ponatinib + Pictilisib = compound: Cc1ccc(C(=O)Nc2ccc(CN3CCN(C)CC3)c(C(F)(F)F)c2)cc1C#Cc1cnc2cccnn12 [Ponatinib] + CS(=O)(=O)N1CCN(Cc2cc3nc(-c4cccc5[nH]ncc45)nc(N4CCOCC4)c3s2)CC1 [Pictilisib] (partner 1 µM)
In short: as §1

Pazopanib + Tozasertib = compound: Cc1ccc(Nc2nccc(N(C)c3ccc4c(C)n(C)nc4c3)n2)cc1S(N)(=O)=O [Pazopanib] + Cc1cc(Nc2cc(N3CCN(C)CC3)nc(Sc3ccc(NC(=O)C4CC4)cc3)n2)n[nH]1 [Tozasertib] (partner 0.1 µM)
In short: as §1

Pazopanib + Olaparib = compound: Cc1ccc(Nc2nccc(N(C)c3ccc4c(C)n(C)nc4c3)n2)cc1S(N)(=O)=O [Pazopanib] + O=C(c1cc(Cc2n[nH]c(=O)c3ccccc23)ccc1F)N1CCN(C(=O)C2CC2)CC1 [Olaparib] (partner 8 µM)
In short: as §1

SK-LU-1
relative viability (Ponatinib + Foretinib; first compound 0.002 µM): 0.852 | relative viability (Ponatinib + Foretinib; first compound 0.006325 µM): 0.795 | relative viability (Ponatinib + Foretinib; first compound 0.06325 µM): 0.826 | relative viability (Ponatinib + Foretinib; first compound 0.2 µM): 0.63 | relative viability (Ponatinib + Pictilisib; first compound 0.002 µM): 0.518 | relative viability (Ponatinib + Pictilisib; first compound 0.006325 µM): 0.63 | relative viability (Ponatinib + Pictilisib; first compound 0.06325 µM): 0.523 | relative viability (Ponatinib + Pictilisib; first compound 0.2 µM): 0.377 | relative viability (Pazopanib + Tozasertib; first compound 0.01 µM): 0.332 | relative viability (Pazopanib + Tozasertib; first compound 0.03162 µM): 0.361 | relative viability (Pazopanib + Tozasertib; first compound 0.1 µM): 0.334 | relative viability (Pazopanib + Tozasertib; first compound 0.3162 µM): 0.28 | relative viability (Pazopanib + Tozasertib; first compound 1 µM): 0.318 | relative viability (Pazopanib + Olaparib; first compound 0.01 µM): 0.392 | relative viability (Pazopanib + Olaparib; first compound 0.03162 µM): 0.483 | relative viability (Pazopanib + Olaparib; first compound 0.1 µM): 0.441 | relative viability (Pazopanib + Olaparib; first compound 0.3162 µM): 0.525 | relative viability (Pazopanib + Olaparib; first compound 1 µM): 0.55

A-427
relative viability (Ponatinib + Foretinib; first compound 0.002 µM): 1 | relative viability (Ponatinib + Foretinib; first compound 0.006325 µM): 1.19 | relative viability (Ponatinib + Foretinib; first compound 0.06325 µM): 1.11 | relative viability (Ponatinib + Foretinib; first compound 0.2 µM): 0.715 | relative viability (Ponatinib + Pictilisib; first compound 0.002 µM): 0.691 | relative viability (Ponatinib + Pictilisib; first compound 0.006325 µM): 0.756 | relative viability (Ponatinib + Pictilisib; first compound 0.06325 µM): 0.529 | relative viability (Ponatinib + Pictilisib; first compound 0.2 µM): 0.531 | relative viability (Pazopanib + Tozasertib; first compound 0.01 µM): 0.183 | relative viability (Pazopanib + Tozasertib; first compound 0.03162 µM): 0.207 | relative viability (Pazopanib + Tozasertib; first compound 0.1 µM): 0.207 | relative viability (Pazopanib + Tozasertib; first compound 0.3162 µM): 0.217 | relative viability (Pazopanib + Tozasertib; first compound 1 µM): 0.186 | relative viability (Pazopanib + Olaparib; first compound 0.01 µM): 0.729 | relative viability (Pazopanib + Olaparib; first compound 0.03162 µM): 0.8 | relative viability (Pazopanib + Olaparib; first compound 0.1 µM): 0.758 | relative viability (Pazopanib + Olaparib; first compound 0.3162 µM): 0.812 | relative viability (Pazopanib + Olaparib; first compound 1 µM): 0.791

NCI-H460
relative viability (Ponatinib + Foretinib; first compound 0.002 µM): 0.92 | relative viability (Ponatinib + Foretinib; first compound 0.006325 µM): 0.938 | relative viability (Ponatinib + Foretinib; first compound 0.06325 µM): 1 | relative viability (Ponatinib + Foretinib; first compound 0.2 µM): 0.967 | relative viability (Ponatinib + Pictilisib; first compound 0.002 µM): 0.383 | relative viability (Ponatinib + Pictilisib; first compound 0.006325 µM): 0.441 | relative viability (Ponatinib + Pictilisib; first compound 0.06325 µM): 0.469 | relative viability (Ponatinib + Pictilisib; first compound 0.2 µM): 0.452 | relative viability (Pazopanib + Tozasertib; first compound 0.01 µM): 0.564 | relative viability (Pazopanib + Tozasertib; first compound 0.03162 µM): 0.503 | relative viability (Pazopanib + Tozasertib; first compound 0.1 µM): 0.523 | relative viability (Pazopanib + Tozasertib; first compound 0.3162 µM): 0.494 | relative viability (Pazopanib + Tozasertib; first compound 1 µM): 0.393 | relative viability (Pazopanib + Olaparib; first compound 0.01 µM): 0.51 | relative viability (Pazopanib + Olaparib; first compound 0.03162 µM): 0.413 | relative viability (Pazopanib + Olaparib; first compound 0.1 µM): 0.572 | relative viability (Pazopanib + Olaparib; first compound 0.3162 µM): 0.406 | relative viability (Pazopanib + Olaparib; first compound 1 µM): 0.409

NCI-H1703
relative viability (Ponatinib + Foretinib; first compound 0.002 µM): 0.275 | relative viability (Ponatinib + Foretinib; first compound 0.006325 µM): 0.337 | relative viability (Ponatinib + Foretinib; first compound 0.06325 µM): 0.273 | relative viability (Ponatinib + Foretinib; first compound 0.2 µM): 0.257 | relative viability (Ponatinib + Pictilisib; first compound 0.002 µM): 0.278 | relative viability (Ponatinib + Pictilisib; first compound 0.006325 µM): 0.228 | relative viability (Ponatinib + Pictilisib; first compound 0.06325 µM): 0.223 | relative viability (Ponatinib + Pictilisib; first compound 0.2 µM): 0.205 | relative viability (Pazopanib + Olaparib; first compound 0.01 µM): 0.465 | relative viability (Pazopanib + Olaparib; first compound 0.1 µM): 0.223 | relative viability (Pazopanib + Olaparib; first compound 0.3162 µM): 0.244 | relative viability (Pazopanib + Olaparib; first compound 1 µM): 0.194

NCI-H1792
relative viability (Ponatinib + Pictilisib; first compound 0.002 µM): 0.241 | relative viability (Ponatinib + Pictilisib; first compound 0.006325 µM): 0.347 | relative viability (Ponatinib + Pictilisib; first compound 0.06325 µM): 0.388 | relative viability (Ponatinib + Pictilisib; first compound 0.2 µM): 0.284 | relative viability (Pazopanib + Olaparib; first compound 0.03162 µM): 0.384 | relative viability (Pazopanib + Olaparib; first compound 0.1 µM): 0.435 | relative viability (Pazopanib + Olaparib; first compound 0.3162 µM): 0.483 | relative viability (Pazopanib + Olaparib; first compound 1 µM): 0.384

Calu-6
relative viability (Ponatinib + Foretinib; first compound 0.002 µM): 0.849 | relative viability (Ponatinib + Foretinib; first compound 0.006325 µM): 0.867 | relative viability (Ponatinib + Foretinib; first compound 0.06325 µM): 0.931 | relative viability (Ponatinib + Foretinib; first compound 0.2 µM): 0.816 | relative viability (Ponatinib + Pictilisib; first compound 0.002 µM): 0.92 | relative viability (Ponatinib + Pictilisib; first compound 0.006325 µM): 0.87 | relative viability (Ponatinib + Pictilisib; first compound 0.06325 µM): 0.928 | relative viability (Ponatinib + Pictilisib; first compound 0.2 µM): 0.724 | relative viability (Pazopanib + Olaparib; first compound 0.01 µM): 0.601 | relative viability (Pazopanib + Olaparib; first compound 0.03162 µM): 0.559 | relative viability (Pazopanib + Olaparib; first compound 0.1 µM): 0.589 | relative viability (Pazopanib + Olaparib; first compound 0.3162 µM): 0.579 | relative viability (Pazopanib + Olaparib; first compound 1 µM): 0.5

SW 1573
relative viability (Ponatinib + Foretinib; first compound 0.002 µM): 0.75 | relative viability (Ponatinib + Foretinib; first compound 0.006325 µM): 0.767 | relative viability (Ponatinib + Foretinib; first compound 0.06325 µM): 0.922 | relative viability (Ponatinib + Foretinib; first compound 0.2 µM): 0.864 | relative viability (Ponatinib + Pictilisib; first compound 0.002 µM): 0.489 | relative viability (Ponatinib + Pictilisib; first compound 0.006325 µM): 0.515 | relative viability (Ponatinib + Pictilisib; first compound 0.06325 µM): 0.526 | relative viability (Ponatinib + Pictilisib; first compound 0.2 µM): 0.566 | relative viability (Pazopanib + Tozasertib; first compound 0.01 µM): 0.193 | relative viability (Pazopanib + Tozasertib; first compound 0.03162 µM): 0.216 | relative viability (Pazopanib + Tozasertib; first compound 0.1 µM): 0.218 | relative viability (Pazopanib + Tozasertib; first compound 0.3162 µM): 0.153 | relative viability (Pazopanib + Tozasertib; first compound 1 µM): 0.176 | relative viability (Pazopanib + Olaparib; first compound 0.01 µM): 0.471 | relative viability (Pazopanib + Olaparib; first compound 0.03162 µM): 0.511 | relative viability (Pazopanib + Olaparib; first compound 0.1 µM): 0.52 | relative viability (Pazopanib + Olaparib; first compound 0.3162 µM): 0.531 | relative viability (Pazopanib + Olaparib; first compound 1 µM): 0.517

RERF-LC-KJ
relative viability (Ponatinib + Foretinib; first compound 0.002 µM): 0.819 | relative viability (Ponatinib + Foretinib; first compound 0.006325 µM): 0.894 | relative viability (Ponatinib + Foretinib; first compound 0.06325 µM): 0.873 | relative viability (Ponatinib + Foretinib; first compound 0.2 µM): 0.867 | relative viability (Ponatinib + Pictilisib; first compound 0.002 µM): 0.618 | relative viability (Ponatinib + Pictilisib; first compound 0.006325 µM): 0.582 | relative viability (Ponatinib + Pictilisib; first compound 0.06325 µM): 0.781 | relative viability (Ponatinib + Pictilisib; first compound 0.2 µM): 0.68 | relative viability (Pazopanib + Tozasertib; first compound 0.01 µM): 0.557 | relative viability (Pazopanib + Tozasertib; first compound 0.03162 µM): 0.522 | relative viability (Pazopanib + Tozasertib; first compound 0.1 µM): 0.507 | relative viability (Pazopanib + Tozasertib; first compound 0.3162 µM): 0.432 | relative viability (Pazopanib + Tozasertib; first compound 1 µM): 0.331 | relative viability (Pazopanib + Olaparib; first compound 0.01 µM): 0.805 | relative viability (Pazopanib + Olaparib; first compound 0.03162 µM): 0.938 | relative viability (Pazopanib + Olaparib; first compound 0.1 µM): 0.947 | relative viability (Pazopanib + Olaparib; first compound 0.3162 µM): 0.785 | relative viability (Pazopanib + Olaparib; first compound 1 µM): 0.583

EMC-BAC-2
relative viability (Ponatinib + Foretinib; first compound 0.002 µM): 0.965 | relative viability (Ponatinib + Foretinib; first compound 0.006325 µM): 0.989 | relative viability (Ponatinib + Foretinib; first compound 0.06325 µM): 1.06 | relative viability (Ponatinib + Foretinib; first compound 0.2 µM): 0.986 | relative viability (Ponatinib + Pictilisib; first compound 0.002 µM): 0.549 | relative viability (Ponatinib + Pictilisib; first compound 0.006325 µM): 0.537 | relative viability (Ponatinib + Pictilisib; first compound 0.06325 µM): 0.684 | relative viability (Ponatinib + Pictilisib; first compound 0.2 µM): 0.527 | relative viability (Pazopanib + Tozasertib; first compound 0.03162 µM): 0.302 | relative viability (Pazopanib + Tozasertib; first compound 0.1 µM): 0.302 | relative viability (Pazopanib + Tozasertib; first compound 0.3162 µM): 0.226 | relative viability (Pazopanib + Tozasertib; first compound 1 µM): 0.278 | relative viability (Pazopanib + Olaparib; first compound 0.03162 µM): 0.476 | relative viability (Pazopanib + Olaparib; first compound 0.1 µM): 0.457 | relative viability (Pazopanib + Olaparib; first compound 0.3162 µM): 0.43 | relative viability (Pazopanib + Olaparib; first compound 1 µM): 0.43

LK-2
relative viability (Ponatinib + Foretinib; first compound 0.006325 µM): 1.07 | relative viability (Ponatinib + Foretinib; first compound 0.06325 µM): 0.687 | relative viability (Ponatinib + Foretinib; first compound 0.2 µM): 0.739 | relative viability (Ponatinib + Pictilisib; first compound 0.002 µM): 0.589 | relative viability (Ponatinib + Pictilisib; first compound 0.006325 µM): 0.555 | relative viability (Ponatinib + Pictilisib; first compound 0.06325 µM): 0.411 | relative viability (Ponatinib + Pictilisib; first compound 0.2 µM): 0.446 | relative viability (Pazopanib + Tozasertib; first compound 0.03162 µM): 0.178 | relative viability (Pazopanib + Tozasertib; first compound 0.1 µM): 0.201 | relative viability (Pazopanib + Tozasertib; first compound 0.3162 µM): 0.169 | relative viability (Pazopanib + Tozasertib; first compound 1 µM): 0.174 | relative viability (Pazopanib + Olaparib; first compound 0.01 µM): 0.575 | relative viability (Pazopanib + Olaparib; first compound 0.03162 µM): 0.673 | relative viability (Pazopanib + Olaparib; first compound 0.1 µM): 0.735 | relative viability (Pazopanib + Olaparib; first compound 0.3162 µM): 0.807 | relative viability (Pazopanib + Olaparib; first compound 1 µM): 0.539
